The source of these data is patent US10316017B2, “COT modulators and methods of use thereof” (Gilead Sciences, Inc., priority 2015, dated 2019).

For this test, the target named is T1, human Cot catalytic domain (30-397 amino acids) (Homo sapiens, UniProt P41279).
T1 construct: Purified recombinant human Cot catalytic domain (30-397 amino acids) was purchased from Cama Biosciences; purchased Cama Biosciences (so in the source)
T1 sequence (P41279 30-397): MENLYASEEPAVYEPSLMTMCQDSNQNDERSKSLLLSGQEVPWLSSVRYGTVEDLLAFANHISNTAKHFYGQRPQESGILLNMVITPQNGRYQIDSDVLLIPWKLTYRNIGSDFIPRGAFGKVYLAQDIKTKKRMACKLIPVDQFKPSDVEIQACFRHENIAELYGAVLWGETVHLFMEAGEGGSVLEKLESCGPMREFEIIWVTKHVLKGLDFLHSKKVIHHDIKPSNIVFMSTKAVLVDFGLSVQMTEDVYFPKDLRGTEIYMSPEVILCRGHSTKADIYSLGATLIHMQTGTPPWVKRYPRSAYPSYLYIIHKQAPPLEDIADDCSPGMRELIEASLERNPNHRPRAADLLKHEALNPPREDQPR
The test can be described thus: High Throughput Cot Biochemical Assay (KinEASE TR-FRET). Particulars: Cot KinEASE TR-FRET, 400 μM ATP; read-out: IC50 HTRF. The method, then:
Example 61: High Throughput Cot Biochemical Assay
In this assay, Cot-catalyzes the phosphorylation of a XL665-labeled peptide substrate. Europium conjugated phospho-tyrosine specific antibody binds the resulting phosphorylated peptide. […] Purified recombinant human Cot catalytic domain (30-397 amino acids) was purchased from Cama Biosciences. […] The standard 5 μL reaction mixture contained 400 μM ATP, 1 μM STK3 peptide, 5 nM of Cot in reaction buffer (10 mM MOPS, pH 7.0, 0.02% NaN3, 0.5 mg/mL BSA, 10 mM MgOAc, 1 mM DTT, 0.025% NP-40, 1.5% glycerol) and 0.1% DMSO.
On the technique in general: TR-FRET usually uses a lanthanide donor and a delayed reading to cut background.
`CC(C)(C)N1CCC(n2cc([C@@H](Nc3cc(Cl)c4ncc(C#N)c(Nc5cccnc5)c4c3)c3ccc(Cl)cc3)nn2)CC1` [Example 772, (S)-6-(((1-(1-(tert-butyl)piperidin-4-yl)-1H-1,2,3-triazol-4-yl)(4-chlorophenyl)methyl)amino)-8-chloro-4-(pyridin-3-ylamino)quinoline-3-carbonitrile]: the IC50 (as a rule, the concentration that gives 50% inhibition) turned out to be 0.324 µM.
As for `Cc1cc2ncc(C#N)c(Nc3ccc(F)c(Cl)c3)c2cc1NC(c1ccc(F)cc1)c1cn(C)nn1` (stereo not drawn) [Example 773, 4-((3-chloro-4-fluorophenyl)amino)-6-(((4-fluorophenyl)(1-methyl-1H-1,2,3-triazol-4-yl)methyl)amino)-7-methylquinoline-3-carbonitrile], the IC50 came out at 1.86 µM.
As to `N#Cc1cnc2c(Cl)cc(N[C@@H](c3ccccc3)c3cn(C4CC5(CNC5)C4)nn3)cc2c1Nc1ccc(F)c(Cl)c1` [Example 775, (S)-6-(((1-(2-azaspiro[3.3]heptan-6-yl)-1H-1,2,3-triazol-4-yl)(phenyl)methyl)amino)-8-chloro-4-((3-chloro-4-fluorophenyl)amino)quinoline-3-carbonitrile], the half-inhibitory concentration (IC50) stood at 0.005 µM.
For the molecule `N#Cc1cnc2c(Cl)cc(NC(c3ccc(F)cc3)c3nccs3)cc2c1Nc1ccc(F)c(Cl)c1` (stereo not drawn) [Example 782, 8-chloro-4-((3-chloro-4-fluorophenyl)amino)-6-(((4-fluorophenyl)(thiazol-2-yl)methyl)amino)quinoline-3-carbonitrile], the IC50 was 0.444 µM.
With `N#Cc1cnc2c(Cl)cc(NC(c3ccc(F)cc3)c3ncco3)cc2c1Nc1ccc(F)c(Cl)c1` (stereo not drawn) [Example 783, 8-chloro-4-((3-chloro-4-fluorophenyl)amino)-6-(((4-fluorophenyl)(oxazol-2-yl)methyl)amino)quinoline-3-carbonitrile] the figure was 0.291 µM; with `CC(C)(C)N1CCC(n2cc([C@@H](Nc3cc(Cl)c4ncc(C#N)c(Nc5cccc(-n6nccn6)c5)c4c3)c3ccccc3)nn2)CC1` [Example 785, (S)-4-((3-(2H-1,2,3-triazol-2-yl)phenyl)amino)-6-(((1-(1-(tert-butyl)piperidin-4-yl)-1H-1,2,3-triazol-4-yl)(phenyl)methyl)amino)-8-chloroquinoline-3-carbonitrile], 0.782 µM.
Consider `CC1(C)C[C@H](n2cc([C@H](Nc3cc(Cl)c4ncc(C#N)c(Nc5ccc(F)c(Cl)c5)c4c3)c3ccccc3)nn2)CCN1` [Example 788, 8-chloro-4-((3-chloro-4-fluorophenyl)amino)-6-(((R)-(1-((R)-2,2-dimethylpiperidin-4-yl)-1H-1,2,3-triazol-4-yl)(phenyl)methyl)amino) quinoline-3-carbonitrile], for which the IC50 was found to be 1.01 µM.
For `CC1(C)C[C@H](n2cc([C@H](Nc3cc(Cl)c4ncc(C#N)c(Nc5ccc(F)c(Cl)c5)c4c3)c3ccccc3)nn2)CCN1` [Example 789, 8-chloro-4-((3-chloro-4-fluorophenyl)amino)-6-(((R)-(1-((R)-2,2-dimethylpiperidin-4-yl)-1H-1,2,3-triazol-4-yl)(phenyl)methyl)amino) quinoline-3-carbonitrile], the IC50 came to 0.657 µM.
For the molecule `COc1cc2ncc(C#N)c(Nc3ccc(F)c(Cl)c3)c2cc1NC(c1ccc(F)cc1)c1cn(C)nn1` (stereo not drawn) [Example 798, 4-((3-chloro-4-fluorophenyl)amino)-6-(((4-fluorophenyl)(1-methyl-1H-1,2,3-triazol-4-yl)methyl)amino)-7-methoxyquinoline-3-carbonitrile], the IC50 came out at 7.92 µM.
With `N#Cc1cnc2ccc(NC(c3ccc(F)cc3)c3ccncn3)cc2c1Nc1ccc(F)c(Cl)c1` (stereo not drawn) [Example 799, 4-((3-chloro-4-fluorophenyl)amino)-6-(((4-fluorophenyl)(pyrimidin-4-yl)methyl)amino)quinoline-3-carbonitrile], the IC50 came to 1.48 µM.
Take `N#Cc1cnc2c(Cl)cc(NC(c3ccc(F)cc3)c3ncccn3)cc2c1Nc1ccc(F)c(Cl)c1` (stereo not drawn) [Example 800, 8-chloro-4-((3-chloro-4-fluorophenyl)amino)-6-(((4-fluorophenyl)(pyrimidin-2-yl)methyl)amino)quinoline-3-carbonitrile]: the IC50 is greater than 10 µM.
In the case of `N#Cc1cnc2c(Cl)cc(NC(c3ccc(F)cc3)c3cnccn3)cc2c1Nc1ccc(F)c(Cl)c1` (stereo not drawn) [Example 801, 8-chloro-4-((3-chloro-4-fluorophenyl)amino)-6-(((4-fluorophenyl)(pyrazin-2-yl)methyl)amino)quinoline-3-carbonitrile], the concentration for half-maximal inhibition (IC50) is 1.07 µM.
In the case of `N#Cc1cnc2c(Cl)cc(NC(c3ccc(F)cc3)c3cocn3)cc2c1Nc1ccc(F)c(Cl)c1` (stereo not drawn) [Example 807, 8-chloro-4-((3-chloro-4-fluorophenyl)amino)-6-(((4-fluorophenyl)(oxazol-4-yl)methyl)amino)quinoline-3-carbonitrile], the IC50 stood at 0.437 µM.
For the molecule `N#Cc1cnc2c(Cl)cc(N[C@@H](c3ccc(F)cc3)c3cn(C4COC4)nn3)cc2c1Nc1ccc(F)c(Cl)c1` [Example 810, (S)-8-chloro-4-((3-chloro-4-fluorophenyl)amino)-6-(((4-fluorophenyl)(1-(oxetan-3-yl)-1H-1,2,3-triazol-4-yl)methyl)amino)quinoline-3-carbonitrile], the IC50 is 0.012 µM.
Regarding `CC(C)(C)n1cc([C@@H](Nc2cc(Cl)c3ncc(C#N)c(Nc4ccc(F)c(Cl)c4)c3c2)c2ccc(F)cc2)nn1` [Example 811, (S)-6-(((1-(tert-butyl)-1H-1,2,3-triazol-4-yl)(4-fluorophenyl)methyl)amino)-8-chloro-4-((3-chloro-4-fluorophenyl)amino)quinoline-3-carbonitrile], the half-maximal inhibitory concentration (IC50) was 0.034 µM.
On to `CC(C)(CC(=O)O)n1cc([C@@H](Nc2cc(Cl)c3ncc(C#N)c(Nc4ccc(F)c(Cl)c4)c3c2)c2ccc(F)cc2)nn1` [Example 812, (S)-3-(4-(((8-chloro-4-((3-chloro-4-fluorophenyl)amino)-3-cyanoquinolin-6-yl)amino)(4-fluorophenyl)methyl)-1H-1,2,3-triazol-1-yl)-3-methylbutanoic acid], for which the IC50 was determined as 0.794 µM.
Consider `N#Cc1cnc2c(Cl)cc(NC(c3ccc(F)cc3)c3cn(C[C@H]4CCCN4)nn3)cc2c1Nc1ccc(F)c(Cl)c1` (stereo partly drawn) [Example 817, 8-chloro-4-((3-chloro-4-fluorophenyl)amino)-6-(((4-fluorophenyl)(1-(((R)-pyrrolidin-2-yl)methyl)-1H-1,2,3-triazol-4-yl)methyl)amino)quinoline-3-carbonitrile], for which the IC50 is 0.007 µM.
Take `CN(C)C(=O)N1CCC[C@@H]1Cn1cc(C(Nc2cc(Cl)c3ncc(C#N)c(Nc4ccc(F)c(Cl)c4)c3c2)c2ccc(F)cc2)nn1` (stereo partly drawn) [Example 818, (2R)-2-((4-(((8-chloro-4-((3-chloro-4-fluorophenyl)amino)-3-cyanoquinolin-6-yl)amino)(4-fluorophenyl)methyl)-1H-1,2,3-triazol-1-yl)methyl)-N,N-dimethylpyrrolidine-1-carboxamide]: the IC50 came out at 0.447 µM.
For `CCN1CCC(n2cc([C@@H](Nc3cc(Cl)c4ncc(C#N)c(Nc5ccc(F)c(Cl)c5)c4c3)c3ccc4ccccc4c3)nn2)CC1` [Example 820, (S)-8-chloro-4-((3-chloro-4-fluorophenyl)amino)-6-(((1-(1-ethylpiperidin-4-yl)-1H-1,2,3-triazol-4-yl)(naphthalen-2-yl)methyl)amino)quinoline-3-carbonitrile], the concentration for half-maximal inhibition (IC50) came to 0.023 µM.
With `N#Cc1cnc2c(Cl)cc(N[C@@H](c3ccc(F)cc3)c3cn(C4CCN(C5CC5)CC4)nn3)cc2c1Nc1ccc(F)c(Cl)c1` [Example 821, (S)-8-chloro-4-((3-chloro-4-fluorophenyl)amino)-6-(((1-(1-cyclopropylpiperidin-4-yl)-1H-1,2,3-triazol-4-yl)(4-fluorophenyl)methyl)amino) quinoline-3-carbonitrile] the figure was 0.021 µM; with `N#Cc1cnc2c(Cl)cc(N[C@@H](c3ccc(F)cc3)c3cn(C4CCN(C5CC(F)(F)C5)CC4)nn3)cc2c1Nc1ccc(F)c(Cl)c1` [Example 822, (S)-8-chloro-4-((3-chloro-4-fluorophenyl)amino)-6-(((1-(1-(3,3-difluorocyclobutyl)piperidin-4-yl)-1H-1,2,3-triazol-4-yl)(4-fluorophenyl)methyl)amino) quinoline-3-carbonitrile], 0.09 µM; with `N#Cc1cnc2c(Cl)cc(N[C@@H](c3ccc(F)cc3)c3cn(C4CCN(CC(F)F)CC4)nn3)cc2c1Nc1ccc(F)c(Cl)c1` [Example 823, (S)-8-chloro-4-((3-chloro-4-fluorophenyl)amino)-6-(((1-(1-(2,2-difluoroethyl)piperidin-4-yl)-1H-1,2,3-triazol-4-yl)(4-fluorophenyl)methyl)amino) quinoline-3-carbonitrile], 0.097 µM.
As for `CN1CCC(n2cc([C@@H](Nc3cc(Cl)c4ncc(C#N)c(Nc5ccc(F)c(Cl)c5)c4c3)c3ccc(F)cc3)nn2)CC1` [Example 826, (S)-8-chloro-4-((3-chloro-4-fluorophenyl)amino)-6-(((4-fluorophenyl)(1-(1-methylpiperidin-4-yl)-1H-1,2,3-triazol-4-yl)methyl)amino)quinoline-3-carbonitrile], the figure is 0.006 µM.
With `CCN1CCC(n2cc(C(Nc3ccc4ncc(C#N)c(Nc5ccc(F)c(Cl)c5)c4c3)c3ccc(F)cc3)nn2)CC1` (stereo not drawn) [Example 827, 4-((3-chloro-4-fluorophenyl)amino)-6-(((1-(1-ethylpiperidin-4-yl)-1H-1,2,3-triazol-4-yl)(4-fluorophenyl)methyl)amino) quinoline-3-carbonitrile], the IC50 is 0.034 µM.
